From patent publication US12617770B2, “IRAK inhibitor and preparation method therefor and use thereof” (WUHAN CREATERNA SCIENCE AND TECHNOLOGY CO., LTD., priority 2019, dated 2026)

Key:
[1] = Plasma protein binding (PPB), equilibrium dialysis, rat plasma; type: in vitro ADME; settings: 5 h at 37° C., read-out: Plasma protein binding (Bound %) Rat (converted)
Procedure: The experiment is intended to determine plasma protein binding (PPB) data of the test compounds disclosed herein.
In the PPB experiment, the final administration matrix contained the test compound or a reference compound with a concentration of 1 μM and DMSO with a content of 0.2%.
Collecting samples in initial time: 25 μL of the matrix containing the compound was added into a blank 96-well collecting plate, and the plate was stored at −20° C.
An equilibrated dialysis device was prepared. 100 μL of buffer was added to the receiving side of the equilibrium dialysis plate. Then 100 μL of the administration matrix containing the compound or the reference compound was added into an administration side of the equilibrium dialysis plate. The prepared equilibrium dialysis plate was placed in a 37° C. shaker to be shaken for 5 h at 60 rpm.
Sample was prepared at the end of cultivation (5 h): Preparing sample in the receiving side: 25 μL of sample from a receiving side was taken out and placed in a 96-well sample collecting plate, and 25 μL of a corresponding matrix (blank plasma) was added for mixing: 200 μL of ACN containing an internal standard was added, shaken for 10 minutes at 600 rpm, and centrifuged at 5594 g for 15 min.
Preparing sample in the administration side: 25 μL of the sample containing test compound and reference compound from the administration side was taken out and 25 μL of a blank buffer was added for mixing; 200 μL of ACN containing an internal standard was added, shaken for 10 minutes at 600 rpm, and centrifuged at 5594 g for 15 min.
Preparing sample in initial time: the sample containing test compound and reference compound was re-melted at 37° C. in initial time and then mixed with the corresponding matrix (blank buffer) in the same volume (25 μL); 200 μL of ACN containing an internal standard was added, shaken for 10 minutes at 600 rpm, and centrifuged at 5594 g for 15 min.
After all the samples were centrifuged, 50 μL of a supernatant was taken and added into 50 μL of ultrapure water for mixing, and the samples were sent to liquid chromatography-mass spectrometry.

CYP3A4 = biological target: T1, CYP3A4 (Homo sapiens, UniProt P08684); assay: Time-dependent inhibition (TDI) of CYP3A4 in human liver microsomes; type: in vitro ADME; settings: probe substrate midazolam
T1 construct: The test compounds were co-incubated with the human liver microsomes and a probe substrate midazolam (CYP3A4); tissue Corning (USA); host or cells: mixed (pooled) human liver microsomes
Procedure: This study was intended to investigate the time-dependent inhibition effect of the compounds on CYP3A4 in human P450 superfamily. The mixed human liver microsomes used in this assay were purchased from Corning (USA).
The test compounds were co-incubated with the human liver microsomes and a probe substrate midazolam (CYP3A4), and the concentration of the test compounds was set at 30 μM. The reaction was initiated by adding coenzyme NADPH, and terminated by adding acetonitrile dossolved with internal standard in advance. After the proteins were precipitated, the supernatant was centrifuged. The characteristic metabolite 1-hydroxy-midazolam (CYP3A4) in the supernatant was analyzed by LC-MS/MS. The influence of the test compounds on production of the characteristic metabolites was finally analyzed on the basis of the data obtained. A selective inhibitor (verapamil for CYP3A4-M) was used as positive control.

T1 sequence (P08684 whole entry): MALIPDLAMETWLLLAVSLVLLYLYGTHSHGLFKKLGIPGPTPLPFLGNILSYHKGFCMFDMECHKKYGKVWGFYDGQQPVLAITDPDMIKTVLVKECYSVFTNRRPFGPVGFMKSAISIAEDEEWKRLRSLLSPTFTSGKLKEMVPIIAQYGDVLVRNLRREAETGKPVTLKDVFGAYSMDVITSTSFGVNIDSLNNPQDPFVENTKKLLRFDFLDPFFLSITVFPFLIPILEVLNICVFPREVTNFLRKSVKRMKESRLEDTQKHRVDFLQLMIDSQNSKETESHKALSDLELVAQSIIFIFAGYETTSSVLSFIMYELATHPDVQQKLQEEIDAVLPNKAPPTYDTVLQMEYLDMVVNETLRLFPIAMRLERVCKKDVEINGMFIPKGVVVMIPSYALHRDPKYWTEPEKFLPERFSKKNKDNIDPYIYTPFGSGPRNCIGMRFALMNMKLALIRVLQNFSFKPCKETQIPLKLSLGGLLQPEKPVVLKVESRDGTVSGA

SMILES	fraction unbound at 5 h, 1 μM [1]	TDI (3A4, 30 μM) (CYP3A4)
COc1cc2nn(CCC(C)(C)O)cc2cc1NC(=O)c1cccc(C)[n+]1[O-] [Compound 163, 2-((2-(3-hydroxy-3-methylbutyl)-6-methoxy-2H-indazol-5-yl)carbamoyl)-6-methylpyridine 1-oxide]	0.194	–
COc1cc2nn([C@H]3CC[C@](C)(O)CC3)cc2cc1NC(=O)c1cccc(C)[n+]1[O-] [Compound 001, 2-((2-((1r,4r)-4-hydroxy-4-methylcyclohexyl)-6-methoxy-2H-indazol-5-yl)carbamoyl)-6-methylpyridine 1-oxide]	0.153	−3.68%
